From ChEMBL document CHEMBL1201862, “PubChem BioAssay data set” (2004)
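How tested: cells in 96-well plates exposed to compound for 48 hours at five concentrations. GI50 = concentration required for 50% inhibition of growth.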 The source made the active and inactive calls. Cut-off read from the data, not from the text of the source: active = GI50 up to about 1.1 µM and inactive = higher.

Columns and labels:
Assay in all cases: NCI anticancer screen, dose series, 48 h
[1] = tested on: SK-MEL-5
[2] = tested on: HCC 2998
[3] = tested on: HOP-92
[4] = tested on: NCI/ADR-RES
[5] = tested on: HT-29
[6] = tested on: U-251
[7] = tested on: OVCAR-4
[8] = tested on: A498
[9] = tested on: HCT-15
[10] = tested on: HCT-116
[11] = tested on: OVCAR-5
[12] = tested on: UACC-62
[13] = tested on: RPMI-8226
[14] = tested on: SF-295
[15] = tested on: SK-MEL-28
[16] = tested on: OVCAR-3
[17] = tested on: COLO 205
[18] = tested on: NCI-H460
[19] = tested on: SK-MEL-2

In the case of `O=C1Nc2ccccc2Nc2ccncc21`, the GI50 [1] is reported as > 100 µM (inactive), the GI50 [2] is reported as > 100 µM (inactive) and the GI50 [3] is reported as > 100 µM (inactive). For the same compound, the GI50 [4] was > 100 µM (inactive), the GI50 [5] was > 100 µM (inactive) and the GI50 [6] was > 100 µM (inactive). The GI50 [7] was > 100 µM (inactive), the GI50 [8] was > 100 µM (inactive) and the GI50 [9] was over 100 µM. For the same compound, the GI50 [10] was > 100 µM (inactive), the GI50 [11] was > 100 µM (inactive) and the GI50 [12] was > 100 µM (inactive). For the same compound, the GI50 [13] was > 100 µM (inactive), the GI50 [14] was > 100 µM (inactive) and the GI50 [15] was > 100 µM (inactive). The GI50 [16] was > 100 µM (inactive), the GI50 [17] was > 100 µM (inactive) and the GI50 [18] was > 100 µM (inactive). The GI50 [19] was > 100 µM (inactive).

`Cc1[nH]c(=O)[nH]c(=O)c1/C=C/C(=O)NC(CO)C[S+]([O-])C[S+](C)[O-]` (configuration not stated) was tested, and the GI50 [1] was 18 µM (inactive), the GI50 [2] was 9.62 µM (inactive) and the GI50 [3] was 9.73 µM (inactive). The GI50 [4] was 24.8 µM (inactive), the GI50 [5] was 125 µM (inactive) and the GI50 [6] was 3.8 µM (inactive). The GI50 [7] was 2.17 µM (inactive), the GI50 [8] was 21.8 µM (inactive) and the GI50 [9] was 44.3 µM. For the same compound, the GI50 [10] was 19.3 µM (inactive), the GI50 [11] was 135 µM (inactive) and the GI50 [12] was 12.5 µM (inactive). The GI50 [13] was 34.8 µM (inactive), the GI50 [14] was 15.6 µM (inactive) and the GI50 [15] was 17.8 µM (inactive). The GI50 [16] was 7.87 µM (inactive), the GI50 [17] was 30 µM (inactive) and the GI50 [18] was 16.6 µM (inactive). The GI50 [19] was 13.5 µM (inactive).

In the case of `O=C1CSc2sc(=S)sc2S1`, the GI50 [1] is reported as > 100 µM (inactive), the GI50 [2] is reported as > 80.2 µM (inactive) and the GI50 [3] is reported as > 100 µM (inactive). The GI50 [4] was > 66.8 µM (inactive), the GI50 [5] was > 29.2 µM (inactive) and the GI50 [6] was > 100 µM (inactive). For the same compound, the GI50 [7] was > 59.3 µM (inactive), the GI50 [8] was 31.3 µM (inactive) and the GI50 [9] was over 79.3 µM. For the same compound, the GI50 [10] was > 100 µM (inactive), the GI50 [11] was > 100 µM (inactive) and the GI50 [12] was > 100 µM (inactive). For the same compound, the GI50 [13] was 78.9 µM (inactive), the GI50 [14] was > 24.5 µM (inactive) and the GI50 [15] was > 100 µM (inactive). For the same compound, the GI50 [16] was > 100 µM (inactive), the GI50 [17] was > 100 µM (inactive) and the GI50 [18] was > 100 µM (inactive). For the same compound, the GI50 [19] was > 82.4 µM (inactive).
